Test results taken from patent publication US12174198B2, “Methods of characterizing condensate-associated characteristics of compounds and uses thereof” (Dewpoint Therapeutics, Inc., priority 2019, dated 2024).

Assays:
Format in all cases: physicochemical
[1] = target: T1, FUS-SNAP condensates (Homo sapiens, UniProt P35637); test: Fluorescence imaging of dye partitioning in FUS-SNAP condensates (I-in, I-out); conditions: for Ratio of intensity inside:outside FUS-SNAP Condensates Day 1 / Ratio of intensity inside:outside FUS-SNAP Condensates Day 2 / Ratio of intensity inside:outside FUS-SNAP Condensates Average: I-in:I-out; for Ratio of intensity inside:outside FUS-SNAP Condensates Day 1 / Ratio of intensity inside:outside FUS-SNAP Condensates Day 2 / Ratio of intensity inside:outside FUS-SNAP Condensates Average / Intensity Inside with Dye Average / Intensity Inside with Dye 1 / Intensity Inside with Dye 2 / Intensity Inside with Dye 3 / Intensity Outside with Dye Average / Intensity Outside with Dye 1 / Intensity Outside with Dye 2 / Intensity Outside with Dye 3: 10 μM dye; for Ratio of intensity inside:outside FUS-SNAP Condensates Average: average of two days; for Intensity Inside with Dye Average / Intensity Inside with Dye 1 / Intensity Inside with Dye 2 / Intensity Inside with Dye 3 / Intensity Inside Dye-No Dye: inside FUS-SNAP condensate; for Intensity Inside with Dye Average / Intensity Inside with Dye 1 / Intensity Inside with Dye 2 / Intensity Inside with Dye 3 / Intensity Outside with Dye Average / Intensity Outside with Dye 1 / Intensity Outside with Dye 2 / Intensity Outside with Dye 3: 5 μM protein; for Intensity Inside with Dye Average / Intensity Outside with Dye Average: average of three images; for Intensity Inside with Dye Average / Intensity Inside with Dye 1 / Intensity Inside with Dye 2 / Intensity Inside with Dye 3 / Intensity Inside Dye-No Dye / Intensity Outside with Dye Average / Intensity Outside with Dye 1 / Intensity Outside with Dye 2 / Intensity Outside with Dye 3 / Intensity Outside (Dye-No Dye): one day of experiments; for Intensity Inside with Dye 1 / Intensity Outside with Dye 1: image 1; for Intensity Inside with Dye 2 / Intensity Outside with Dye 2: image 2; for Intensity Inside with Dye 3 / Intensity Outside with Dye 3: image 3; for Intensity Inside Dye-No Dye / Intensity Outside (Dye-No Dye): background corrected; for Intensity Outside with Dye Average / Intensity Outside with Dye 1 / Intensity Outside with Dye 2 / Intensity Outside with Dye 3 / Intensity Outside (Dye-No Dye): outside FUS-SNAP condensate
T1 sequence (P35637 1-526): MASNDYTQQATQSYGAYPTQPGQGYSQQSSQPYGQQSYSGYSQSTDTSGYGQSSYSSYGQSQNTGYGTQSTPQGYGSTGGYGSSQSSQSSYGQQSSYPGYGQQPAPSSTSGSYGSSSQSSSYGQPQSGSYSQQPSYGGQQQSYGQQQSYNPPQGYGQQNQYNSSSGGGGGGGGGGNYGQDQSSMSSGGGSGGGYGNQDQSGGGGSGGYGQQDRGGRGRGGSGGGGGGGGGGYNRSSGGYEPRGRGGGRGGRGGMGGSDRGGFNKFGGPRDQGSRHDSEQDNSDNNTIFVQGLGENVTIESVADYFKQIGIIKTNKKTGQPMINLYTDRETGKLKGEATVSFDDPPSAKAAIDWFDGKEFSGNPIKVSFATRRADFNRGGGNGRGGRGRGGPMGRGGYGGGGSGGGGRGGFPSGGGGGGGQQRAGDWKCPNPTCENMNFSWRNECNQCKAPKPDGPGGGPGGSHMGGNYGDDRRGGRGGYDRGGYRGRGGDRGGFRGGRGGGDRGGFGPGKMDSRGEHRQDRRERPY
Protocol: (§1) All dye-stocks were stored as 1 mM solutions in 100% DMSO. The dyes were dissolved in dilution buffer (DB: 14.7 mM Tris, pH 7.25, 1 mM DTT) to yield 11.765 μM dye in 1.1765 DMSO. 17 μl of dye was distributed in a 384 well non-binding plate (Greiner).
(§2) Either SNAP-tagged FUS protein or tag-free PGL-3 protein was thawed at room temperature for at least 10 min, and the buffer was exchanged to partitioning buffer (PB: 50 mM Tris pH 7.25, 500 mM KCl, 5% Glycerol, and 1 mM DTT). The protein was then diluted to 33.3 μM in PB. 3 μl of protein solution were added to the 384 well plate to initiate phase separation, yielding 20 μl of 5 μM protein and 10 μM dye in 75 mM KCl, 0.75% Glycerol, 20 mM Tris, 1 mM DTT, and 1% DMSO or for no dye control reactions, 20 μl of 5 μM protein in 75 mM KCl, 0.75% Glycerol, 20 mM Tris, 1 mM DTT.
(§3) A spinning disk confocal microscope was used to acquire images of the samples. A 60×oil high-NA objective lens was used to capture the condensate droplets. The laser power was set to 20% and the exposure times were adjusted to the fluorescence emission intensity specific for each dye. Exposure times ranged from 1-1000 ms. Appropriate filter settings were used, matching the excitation and emission spectra of the respective dyes. Three images per well were taken. The background signal of protein droplets in the absence of dye was recorded for all applied imaging conditions.
(§4) Fluorescence intensity was measured inside one exemplary target condensate (Intensity inside, I-in) per image and in a region next to the exemplary target condensate (Intensity outside, I-out) by hand using the image analysis software Fiji. An example depicting the regions measured is shown FIG. 2A. Three I-in and three I-out values were measured in total for each dye in each experiment and were averaged. The measured I-in and I-out values for FUS-SNAP condensates on one day of experiments are shown in Table 2 and Table 3, respectively. The measured I-in and I-out values for PGL-3 condensates on one day of experiments are shown in Table 4 and Table 5, respectively. All values were background corrected, based on the background images (no dye controls) taken with the same microscope conditions.
(§5) The ratios of the average intensity measured in the target condensates and outside of the target condensates were calculated by dividing I-in by I-out, although dividing I-out by I-in could also have been used. The I-in:I-out ratios determined from the two different days of experiments were then averaged. The average I-in:I-out ratios for FUS-SNAP condensates are shown in FIG. 3 and the average I-in:I-out ratios for PGL-3 condensates are shown in FIG. 4. The standard deviation between the two experiments is represented by the error bars in FIG. 3 and FIG. 4.

[2] = target: T2, PGL-3 condensates (Caenorhabditis elegans, UniProt G5EBV6); test: Fluorescence imaging of dye partitioning in PGL-3 condensates (I-in, I-out); conditions: for Ratio of intensity inside:outside PGL-3 Condensates Day 1 / Ratio of intensity inside:outside PGL-3 Condensates Day 2 / Ratio of intensity inside:outside PGL-3 Condensates Average: I-in:I-out; for Ratio of intensity inside:outside PGL-3 Condensates Day 1 / Ratio of intensity inside:outside PGL-3 Condensates Day 2 / Ratio of intensity inside:outside PGL-3 Condensates Average / Intensity Inside with Dye Average / Intensity Inside with Dye 1 / Intensity Inside with Dye 2 / Intensity Inside with Dye 3 / Intensity Outside with Dye Average / Intensity Outside with Dye 1 / Intensity Outside with Dye 2 / Intensity Outside with Dye 3: 10 μM dye; for Ratio of intensity inside:outside PGL-3 Condensates Average: average of two days; for Intensity Inside with Dye Average / Intensity Inside with Dye 1 / Intensity Inside with Dye 2 / Intensity Inside with Dye 3 / Intensity Inside Dye-No Dye: inside PGL-3 condensate; for Intensity Inside with Dye Average / Intensity Inside with Dye 1 / Intensity Inside with Dye 2 / Intensity Inside with Dye 3 / Intensity Outside with Dye Average / Intensity Outside with Dye 1 / Intensity Outside with Dye 2 / Intensity Outside with Dye 3: 5 μM protein; for Intensity Inside with Dye Average / Intensity Outside with Dye Average: average of three images; for Intensity Inside with Dye Average / Intensity Inside with Dye 1 / Intensity Inside with Dye 2 / Intensity Inside with Dye 3 / Intensity Inside Dye-No Dye / Intensity Outside with Dye Average / Intensity Outside with Dye 1 / Intensity Outside with Dye 2 / Intensity Outside with Dye 3 / Intensity Outside (Dye-No Dye): one day of experiments; for Intensity Inside with Dye 1 / Intensity Outside with Dye 1: image 1; for Intensity Inside with Dye 2 / Intensity Outside with Dye 2: image 2; for Intensity Inside with Dye 3 / Intensity Outside with Dye 3: image 3; for Intensity Inside Dye-No Dye / Intensity Outside (Dye-No Dye): background corrected; for Intensity Outside with Dye Average / Intensity Outside with Dye 1 / Intensity Outside with Dye 2 / Intensity Outside with Dye 3 / Intensity Outside (Dye-No Dye): outside PGL-3 condensate
T2 sequence (G5EBV6 1-693): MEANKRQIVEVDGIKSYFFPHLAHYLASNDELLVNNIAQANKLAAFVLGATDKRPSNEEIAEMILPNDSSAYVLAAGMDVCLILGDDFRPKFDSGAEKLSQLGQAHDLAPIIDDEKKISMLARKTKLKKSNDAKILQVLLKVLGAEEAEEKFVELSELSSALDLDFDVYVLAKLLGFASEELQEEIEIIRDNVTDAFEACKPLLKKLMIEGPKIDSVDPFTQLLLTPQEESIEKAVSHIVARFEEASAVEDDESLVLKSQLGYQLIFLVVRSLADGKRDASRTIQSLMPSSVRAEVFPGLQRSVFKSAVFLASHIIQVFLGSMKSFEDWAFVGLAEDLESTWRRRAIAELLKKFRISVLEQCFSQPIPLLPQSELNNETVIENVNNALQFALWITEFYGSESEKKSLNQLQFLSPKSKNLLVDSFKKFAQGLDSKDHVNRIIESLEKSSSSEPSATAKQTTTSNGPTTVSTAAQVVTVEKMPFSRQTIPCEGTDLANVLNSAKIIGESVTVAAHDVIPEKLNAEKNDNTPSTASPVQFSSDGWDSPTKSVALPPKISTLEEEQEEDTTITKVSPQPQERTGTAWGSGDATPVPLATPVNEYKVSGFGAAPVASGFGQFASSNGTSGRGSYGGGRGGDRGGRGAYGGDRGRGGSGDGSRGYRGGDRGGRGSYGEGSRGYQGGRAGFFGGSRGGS
Protocol: as §1, §2, §3, §4, §5

[3] = tested on: FUS-SNAP condensates versus PGL-3 condensates; test: Condensate preference: ratio of FUS-SNAP I-in:I-out to PGL-3 I-in:I-out; conditions: average FUS-SNAP I-in:I-out divided by average PGL-3 I-in:I-out
Protocol: as §5

| Compound | Ratio of intensity inside:outside FUS-SNAP Condensates Day 1 [1] | Ratio of intensity inside:outside FUS-SNAP Condensates Day 2 [1] | Ratio of intensity inside:outside FUS-SNAP Condensates Average [1] | Intensity Inside with Dye Average [1] | Intensity Inside with Dye 1 [1] | Intensity Inside with Dye 2 [1] | Intensity Inside with Dye 3 [1] | Intensity Inside Dye-No Dye [1] | Intensity Outside with Dye Average [1] | Intensity Outside with Dye 1 [1] | Intensity Outside with Dye 2 [1] | Intensity Outside with Dye 3 [1] | Intensity Outside (Dye-No Dye) [1] | Ratio of intensity inside:outside PGL-3 Condensates Day 1 [2] | Ratio of intensity inside:outside PGL-3 Condensates Day 2 [2] | Ratio of intensity inside:outside PGL-3 Condensates Average [2] | Intensity Inside with Dye Average [2] | Intensity Inside with Dye 1 [2] | Intensity Inside with Dye 2 [2] | Intensity Inside with Dye 3 [2] | further results |
| --- | --- | --- | --- | --- | --- | --- | --- | --- | --- | --- | --- | --- | --- | --- | --- | --- | --- | --- | --- | --- | --- |
| O=C(O)c1cc2cc3c4c(c2oc1=O)CCCN4CCC3 [Dye 3, Coumarin 343] | 2.5 | 2.8 | 2.7 | 3572.7 | 3451.6 | 3462.2 | 3804.4 | 3452.8 | 1498.4 | 1486.5 | 1529.0 | 1479.6 | 1378.3 | 1.5 | 1.1 | 1.3 | 2098.0 | 2228.4 | 2006.3 | 2059.4 | Intensity Inside Dye-No Dye [2]: 1977.3; Intensity Outside with Dye Average [2]: 1447.1; Intensity Outside with Dye 1 [2]: 1472.5; Intensity Outside with Dye 2 [2]: 1407.6; Intensity Outside with Dye 3 [2]: 1461.1; Intensity Outside (Dye-No Dye) [2]: 1326.6; Ratio of FUS-SNAP:PGL-3 [3]: 2.0 |
| CC(=O)c1cc2cc3c4c(c2oc1=O)CCCN4CCC3 [Dye 4, Coumarin 334] | 2.1 | 3.0 | 2.6 | 10851.1 | 10755.9 | 10738.6 | 11058.9 | 10353.6 | 5030.3 | 4894.0 | 5118.6 | 5078.2 | 4890.2 | 1.4 | 1.3 | 1.3 | 204.8 | 212.2 | 205.0 | 197.2 | Intensity Inside Dye-No Dye [2]: 84.0; Intensity Outside with Dye Average [2]: 179.0; Intensity Outside with Dye 1 [2]: 178.0; Intensity Outside with Dye 2 [2]: 179.6; Intensity Outside with Dye 3 [2]: 179.5; Intensity Outside (Dye-No Dye) [2]: 58.6; Ratio of FUS-SNAP:PGL-3 [3]: 1.9 |
| CC(=O)N[C@H]1[C@H](Oc2ccc3c(c2)Oc2cc(O)ccc2C32OC(=O)c3ccccc32)O[C@H](CO)[C@H](O)[C@@H]1O (stereo partly drawn) [Dye 5, Fluorescein mono-(N-acetyl-β-D-galactosaminide)] | 1.2 | 1.4 | 1.3 | 1896.7 | 2046.8 | 2005.1 | 1638.1 | 1399.1 | 1272.5 | 1319.4 | 1306.9 | 1191.0 | 1132.4 | 1.0 | 1.1 | 1.1 | 1834.5 | 1912.6 | 1794.0 | 1797.0 | Intensity Inside Dye-No Dye [2]: 1237.3; Intensity Outside with Dye Average [2]: 1392.9; Intensity Outside with Dye 1 [2]: 1439.0; Intensity Outside with Dye 2 [2]: 1386.2; Intensity Outside with Dye 3 [2]: 1353.5; Intensity Outside (Dye-No Dye) [2]: 1230.0; Ratio of FUS-SNAP:PGL-3 [3]: 1.3 |
